Measured values taken from patent US20250205193A1, “THERAPEUTIC COMPOUND AND SALTS” (Regents of the University of Minnesota, priority 2022, published 2025).
Where two headings read alike, the source gives them in different places.

Experiments:
in vivo = details: mouse
Description: (§1) The pharmacokinetics and oral bioavailability of the compound of formula (I) were investigated in mouse following single intravenous and oral gavage.

[1] = for T1/2: PO 5.00 mg/kg; for F: in vivo, po, 5 mg/kg
Description: as §1

mice = assay: Single dose acute toxicity study; assay type: in vivo; details: single dose 40 mg/kg PO
Description: Additionally, a single dose acute toxicity study (40 mg/kg PO, q.d.) was carried out.

67NR cells = assay: Seahorse XFe96 respiratory experiments in permeabilized cells for pyruvate driven respiration (67NR); assay type: cell-based; details: read-out: inhibits pyruvate driven respiration, IC50
Description: 4T1 cells were seeded (20,000 cells/well) onto Seahorse XFe96 well plates and incubated overnight in growth media at 37° C. and 5% CO2 for adherence. […] For pyruvate driven respiration experiments, test compound was injected in port A, followed by rPFO (1 nM) in port B, followed by respective substrate cocktails (FCCP stimulated) in port C, and rotenone and antimycin A (0.5 μM) in port D. Final substrate concentrations for specific tests were as follows: (5 mM pyruvate, 0.5 mM malate, 2 mM dichloroacetate (DCA); 10 mM glutamate, 2 mM DCA; 2 μM rotenone).

Balb-C mice = assay: Maximum tolerated dose study; assay type: in vivo; details: up to 40 mg/kg PO, q.d.
Description: A maximum tolerated dose study was conducted in Balb-C mice.

`CN(Cc1ccc(C(F)(F)F)cc1)c1ccc2cc(C(=O)O)c(=O)oc2c1` [MN-D7] showed an AUC(0-inf) (in vivo; female, iv, 1 mg/kg) of 626 ng·h/mL, an AUC(0-t) (in vivo; female, iv, 1 mg/kg) of 552 ng·h/mL and a C0 (in vivo; female, iv, 1 mg/kg) of 226 ng/mL. For the same compound, the Cmax (in vivo; female, iv, 1 mg/kg) was 200 ng/mL, the MRT inf (in vivo; female, iv, 1 mg/kg) was 4.34 h and the MRT last (in vivo; female, iv, 1 mg/kg) was 2.95 h. It also gave a Tmax (in vivo; female, iv, 1 mg/kg) of 0.08 h, a clearance (in vivo; female, iv, 1 mg/kg) of 26.6 mL/min/kg and a half-life (in vivo; female, iv, 1 mg/kg) of 3.15 h. It also gave a Vd (in vivo; female, iv, 1 mg/kg, Vss_obs Vss) of 6.92 L/kg, a Vd (in vivo; female, iv, 1 mg/kg, Vz_obs Vz) of 7.26 L/kg and a bioavailability (in vivo; female, po) of about 124%. For the same compound, the half-life (in vivo; female, po) was 4.41 h, the AUC(0-inf) (in vivo; female, po, 5 mg/kg) was 3480 ng·h/mL and the AUC(0-t) (in vivo; female, po, 5 mg/kg) was 3420 ng·h/mL. For the same compound, the Cmax (in vivo; female, po, 5 mg/kg) was 1450 ng/mL, the MRT inf (in vivo; female, po, 5 mg/kg) was 4.39 h and the MRT last (in vivo; female, po, 5 mg/kg) was 3.88 h. It also gave a Tmax (in vivo; female, po, 5 mg/kg) of 0.08 h, a half-life (in vivo; male, iv) of 3.65 h and an AUC(0-inf) (in vivo; male, iv, 1 mg/kg) of 486 ng·h/mL. The AUC(0-t) (in vivo; male, iv, 1 mg/kg) was 413 ng·h/mL, the C0 (in vivo; male, iv, 1 mg/kg) was 185 ng/mL and the Cmax (in vivo; male, iv, 1 mg/kg) was 160 ng/mL. For the same compound, the MRT inf (in vivo; male, iv, 1 mg/kg) was 4.97 h, the MRT last (in vivo; male, iv, 1 mg/kg) was 3.17 h and the Tmax (in vivo; male, iv, 1 mg/kg) was 0.08 h. It also gave a clearance (in vivo; male, iv, 1 mg/kg) of 34.3 mL/min/kg, a Vd (in vivo; male, iv, 1 mg/kg, Vss_obs Vss) of 10.2 L/kg and a Vd (in vivo; male, iv, 1 mg/kg, Vz_obs Vz) of 10.8 L/kg. It also gave a bioavailability (in vivo; male, po) of about 125%, a half-life (in vivo; male, po) of 4.04 h and an AUC(0-inf) (in vivo; male, po, 5 mg/kg) of 2610 ng·h/mL. It also gave an AUC(0-t) (in vivo; male, po, 5 mg/kg) of 2580 ng·h/mL, a Cmax (in vivo; male, po, 5 mg/kg) of 890 ng/mL and an MRT inf (in vivo; male, po, 5 mg/kg) of 4.33 h. For the same compound, the MRT last (in vivo; male, po, 5 mg/kg) was 4.07 h, the Tmax (in vivo; male, po, 5 mg/kg) was 0.25 h and the “HL_Lambda T1/2” value ([1]; G1-Male, IV 1.0 mg/kg) was 3.65 h. For the same compound, the T1/2 ([1]; G2-Female) was 4.41 h, the T1/2 ([1]; G2-Male) was 4.04 h and the F ([1]; female, mouse) was 123.84%. The F ([1]; male, mouse) was 124.96%, the mean terminal half-life ([1]; mouse, female, IV dose) was 3.15 h and the “toxicity upon examination of internal organs” value (mice) was “did not cause any toxicity issues”. The IC50 (67NR cells) was 17.8 ± 4.9 nM, the “body weight gains and grooming patterns” value (Balb-C mice) was “normal body weight gains and grooming patterns” and the tolerability (Balb-C mice) was “well tolerated”.
